# Measured values reported in patent US20120059021A1, “COMPOSITIONS AND METHODS FOR TREATING CANCER AND METHODS FOR PREDICTING A RESPONSE TO SUCH TREATMENTS” (UNIVERSITY OF WASHINGTON, priority 2008, published 2012).
# Assays:
# COLO829 = experiment: Flow cytometry for active (cleaved) caspase-3, COLO829; assay type: cell-based, human; details: WNT3A, 2 μM PLX4720, 24 hours
# Protocol: Flow cytometry for Active Caspase-3. Cells were seeded in a 6-well dish at a density to achieve 90-100% confluence at harvest. 24 hours after seeding, cells were treated with the indicated conditions for the indicated amount of time. At the time of collection, supernatants were collected and pooled with trypsinized cells. Cells were fixed with 4% paraformaldehyde and permeabilized according to vendor's protocol for Cleaved Caspase-3 (Asp175) Antibody (AlexaFluor 488 Conjugate) (catalog #9669) (Cell Signaling, Beverly Mass.). The antibody was used at a final dilution of 1:100. Flow was performed on a BD FACSCanto H, and data analysed with FlowJo 8.8.6 (Tree Star) software. Experiments were performed with biological triplicates and data are representative of at least three independent experiments. For experiments involving siRNAs, cells were reverse transfected with 20 nM siRNA in 6-well dishes in triplicate with RNAiMax according to manufacturer's protocol. 48 hours following transfection, cells were treated with the indicated conditions for 24 hours and then harvested for analysis. Cells were harvested, stained, and analyzed as described above.
# A375 cells [1] = experiment: Spheroid assay in three-dimensional collagen matrix; assay type: cell-based, human
# Protocol: Spheroid Assay. A375 cells were used for the spheroid assays. Spheroids were formed and implanted in collagen as previously described (54). Spheroids were treated with indicated conditions 30 minutes after collagen polymerization. Images were obtained on a Nikon TiE inverted widefield high-resolution microscope (Nikon Melville, N.Y.).
# BAD and Bim (BCL2L11) = experiment: Immunoblot of BH3-only proteins BAD and Bim in A375 cells; assay type: cell-based, human
# β-catenin = experiment: Cytosolic and nuclear β-catenin fractionation; assay type: cell-based, human; details: A375, 24 hours
# Protocol: Cytosolic and Nuclear β-catenin Fractionation. Cells were plated in 100 mm dishes. 24 hours following plating, cells were treated with the indicated conditions for 24 hours. Cells were gently rinsed with PBS and harvested by scraping in 500 uL of hypotonic lysis buffer (50 mM HEPES pH 8.0, 1 mM EDTA, 1 mM DTT) containing protease and phosphatase inhibitors. Cells were swelled on ice for 30 minutes and then passed through a 27 gauge needle ten times and checked for complete lysis with a microscope. Lysates were centrifuged at 10,000×g for 20 minutes and supernatant was collected as the cytosolic fraction. Pelleted membranes were washed 5 times with hypotonic lysis buffer and then solubilized with solubilization buffer (50 mM Tris pH 8.0, 150 mM NaCl, 0.1% SDS, 0.5% sodium deoxycholate, 1% Triton X-100) containing protease and phosphatase inhibitors. After a 30 minute incubation on ice, lysates were centrifuged at 16,000×g for 20 minutes. The protein concentration of the cleared supernatant was determined by BCA analysis and an equal amount of protein and volume was then incubated with pre-washed Con A sepharose beads overnight at 4 degree C. Supernatant was collected as the nuclear fraction.
# A375 cells [2] = experiment: Immunoblot of apoptosis markers (cleaved caspase-3, cleaved PARP1) in A375 cells; assay type: cell-based, human
# ERK1/2 phosphorylation = ERK1/2 phosphorylation in human epidermal melanocytes; assay type: cell-based; details: HEMs
# Excerpt: Cell Lines. The human melanoma cell lines A375, A2058 and Me1624 were obtained from Cassian Yee (Fred Hutchinson Cancer Research Institute; Seattle, Wash.). The human melanoma cell lines COLO-829, SKMEL28, SKMEL5 were purchased from ATCC (Manassas, Va.). Human Epidermal Melanocytes, adult, lightly pigmented donor, (HEMa-LP) (C0245C) were purchased from Invitrogen (Carlsbad, Calif.). Stable BAR cell lines were generated as previously described (23). BAR luciferase cell lines were also infected with a lentivirus carrying Renilla luciferase driven by a constitutive EFlalpha promoter.
# Cell Culture. The human melanoma lines A375, A2058 were cultured in DMEM supplemented with 5% FBS and 1% antibiotic. The human melanoma lines SK-MEL-5 and SK-MEL-28 were grown in EMEM supplemented with 10% FBS and 1% antibiotic. The human melanoma lines COLO-829 and MEL-624 were grown in RPMI supplemented with 10% FBS and 1% antibiotic HEMa-LP cells were cultured in medium 254 supplemented with 1% HMGS and 1% antibiotic (Invitrogen Carlsbad, Calif.). Synthetic siRNAs were transfected into cultured cells at a final concentration of 20 nM using RNAiMAX (Invitrogen; Grand Island, N.Y.).
# [3] = tested on: human epidermal melanocytes (HEM); experiment: qPCR of endogenous Wnt target gene AXIN2, human epidermal melanocytes (HEM); assay type: cell-based; details: WNT3A CM, 2 μM PLX4720, 24 hours
# Excerpt: RNA purification and qRT-PCR analysis. RNA was purified using the RNeasy kit following the manufacturer's protocol (Qiagen; Maryland, Md.). cDNA was synthesized using RevertAid™ M-MuLV Reverse Transcriptase (Fermentas; Ontario, CAN). Light Cycler FastStart DNA Master SYBR Green1 (Roche; Mannheim, Germany) was used for real-time PCR as previously described (53). Quantitative PCR results presented in the manuscript are averages of a minimum of three biologic replicates.
compound,measurement,setting,value
"CCCS(=O)(=O)Nc1ccc(F)c(C(=O)c2c[nH]c3ncc(Cl)cc23)c1F [PLX4720, N-[3-[(5-Chloro-1H-pyrrolo[2,3-b]pyridin-3-yl)carbonyl]-2,4-difluorophenyl]-1-propanesulfonamide]",SYNERGISTIC APOPTOSIS WITH WNT AND PLX4720?,COLO829,YES
same,spheroid size,"A375 cells [1]; A375:GFP- and A375:WNT3A-derived spheroids, 2 μM PLX4720, 72 hours",decreased spheroid size
same,dead cells (EtBr staining),"A375 cells [1]; spheroids expressing WNT3A, 2 μM PLX4720, 24 hours",detection of dead cells
same,number of invasive cells,"A375 cells [1]; spheroids expressing WNT3A, 2 μM PLX4720, 72 hours",dramatic decrease in the number of invasive cells
same,phosphorylation of BimEL,"BAD and Bim (BCL2L11); A375, 2 μM PLX4720, 24 hours","decreased phosphorylation of the largest Bim isoform, BimEL"
same,phosphorylation of Ser75 on BAD,"BAD and Bim (BCL2L11); A375, 24 hours",decreased Ser75 phosphorylation
same,BimL and BimS levels,"BAD and Bim (BCL2L11); A375, combination of WNT3A and PLX4720, 24 hours",marked increase in BimL and BimS
same,steady-state levels of cytosolic or nuclear β-catenin,β-catenin,did not result in increased steady-state levels of cytosolic or nuclear β-catenin
same,time at which cleaved caspase-3 was first detected,"A375 cells [2]; A375, WNT3A and PLX4720 time course",12 to 16 h
same,cleavage of the caspase-3 substrate PARP1,"A375 cells [2]; A375, combined WNT3A and 2 μM PLX4720, 24 hours","synergistic cleavage of the caspase-3 substrate, PARP1"
same,caspase3 activation,"A375 cells [2]; A375, longer treatment with PLX4720, no exogenous WNT3A",led to activation of caspase3
same,ERK1/2 phosphorylation,ERK1/2 phosphorylation,no effect
same,AXIN2 transcript levels,[3],did not exhibit any increase in AXIN2 transcript levels
